Measured values published in the supplement of paper PMC10307832.

How the values were obtained:
Test in all cases: relative viability (nuclei count vs DMSO), 5 days (fraction); higher = more cells survive
Pazopanib + Luminespib = compound: Cc1ccc(Nc2nccc(N(C)c3ccc4c(C)n(C)nc4c3)n2)cc1S(N)(=O)=O [Pazopanib] + CCNC(=O)c1noc(-c2cc(C(C)C)c(O)cc2O)c1-c1ccc(CN2CCOCC2)cc1 [Luminespib] (partner 0.01 µM)
How it was run: (§1)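 Lung cancer cell lines were pin-tool dosed in 1536-well plates on the day after seeding, with either a lone drug or a fixed anchor-drug dose plus five library-drug doses (not always all listed) in √10 steps. Nuclei were counted on 4× images after 5 days. Relative viability is the ratio of treated-well to vehicle-well nuclei counts, with each value a median of duplicate plates.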

Pazopanib + Alpelisib = compound: Cc1ccc(Nc2nccc(N(C)c3ccc4c(C)n(C)nc4c3)n2)cc1S(N)(=O)=O [Pazopanib] + Cc1nc(NC(=O)N2CCC[C@H]2C(N)=O)sc1-c1ccnc(C(C)(C)C(F)(F)F)c1 [Alpelisib] (partner 2 µM)
How it was run: as §1

Ponatinib + Phenformin = compound: Cc1ccc(C(=O)Nc2ccc(CN3CCN(C)CC3)c(C(F)(F)F)c2)cc1C#Cc1cnc2cccnn12 [Ponatinib] + N=C(N)NC(=N)NCCc1ccccc1 [Phenformin] (partner 250 µM)
How it was run: as §1

Ponatinib + Navitoclax = compound: Cc1ccc(C(=O)Nc2ccc(CN3CCN(C)CC3)c(C(F)(F)F)c2)cc1C#Cc1cnc2cccnn12 [Ponatinib] + CC1(C)CCC(c2ccc(Cl)cc2)=C(CN2CCN(c3ccc(C(=O)NS(=O)(=O)c4ccc(N[C@H](CCN5CCOCC5)CSc5ccccc5)c(S(=O)(=O)C(F)(F)F)c4)cc3)CC2)C1 [Navitoclax] (partner 0.5 µM)
How it was run: as §1

Cell Line | relative viability (Pazopanib + Luminespib; first compound 0.01 µM) | relative viability (Pazopanib + Luminespib; first compound 0.03162 µM) | relative viability (Pazopanib + Luminespib; first compound 0.1 µM) | relative viability (Pazopanib + Luminespib; first compound 0.3162 µM) | relative viability (Pazopanib + Luminespib; first compound 1 µM) | relative viability (Pazopanib + Alpelisib; first compound 0.01 µM) | relative viability (Pazopanib + Alpelisib; first compound 0.03162 µM) | relative viability (Pazopanib + Alpelisib; first compound 0.1 µM) | relative viability (Pazopanib + Alpelisib; first compound 0.3162 µM) | relative viability (Pazopanib + Alpelisib; first compound 1 µM) | relative viability (Ponatinib + Phenformin; first compound 0.002 µM) | relative viability (Ponatinib + Phenformin; first compound 0.006325 µM) | relative viability (Ponatinib + Phenformin; first compound 0.06325 µM) | relative viability (Ponatinib + Phenformin; first compound 0.2 µM) | relative viability (Ponatinib + Navitoclax; first compound 0.002 µM) | relative viability (Ponatinib + Navitoclax; first compound 0.006325 µM) | relative viability (Ponatinib + Navitoclax; first compound 0.06325 µM) | relative viability (Ponatinib + Navitoclax; first compound 0.2 µM)
HCC-827 | 0.369 | 0.778 | 0.747 | 0.603 | 0.46 | 0.949 | 0.943 | 1.02 | 0.944 | 1.01 | 0.411 | 0.429 | 0.416 | 0.348 | 1.02 | 0.971 | 1.06 | 0.983
HOP-62 | 0.79 | 0.89 | 0.915 | 0.953 | 0.981 | 0.68 | 1 | – | 1.23 | 1.07 | 0.602 | 0.635 | 0.633 | 0.624 | 0.943 | 0.984 | 1.01 | 0.817
IA-LM | – | – | – | – | – | 0.665 | 0.856 | 0.876 | 0.669 | 0.509 | – | – | – | – | 0.658 | 0.62 | 0.749 | 0.684
LC-2-ad | 0.992 | 1.06 | 1.02 | 1.03 | 1.23 | 0.844 | 0.884 | 0.916 | 0.866 | 0.891 | 0.415 | 0.542 | 0.498 | 0.462 | 0.482 | 0.419 | 0.49 | 0.349
LCLC-97TM1 | 0.817 | 0.839 | 0.831 | 0.925 | 0.736 | – | 0.236 | 0.272 | 0.234 | 0.243 | 0.489 | 0.432 | 0.467 | 0.411 | – | 0.645 | – | 0.385
LCLC-103H | 0.861 | 1.02 | 1.03 | 0.937 | 1.05 | 0.782 | 0.823 | 1.03 | 0.973 | 1.06 | 0.275 | 0.347 | 0.312 | 0.295 | – | – | – | –
LK-2 | – | 0.208 | 0.176 | 0.168 | 0.219 | 0.816 | 0.996 | 1.03 | 1.05 | 0.843 | – | 0.52 | 0.239 | 0.21 | 0.619 | 0.825 | 1.04 | 0.64
LOU-NH91 | 0.335 | 0.336 | 0.331 | 0.324 | 0.275 | 0.754 | 0.729 | 0.774 | 0.816 | 0.746 | 0.683 | 0.73 | 0.766 | 0.676 | 0.679 | 0.753 | 0.779 | 0.655
LU99A | 0.245 | 0.226 | 0.244 | 0.279 | 0.258 | 0.428 | 0.505 | 0.416 | 0.517 | 0.544 | 0.823 | 0.873 | 0.744 | 0.859 | 0.715 | 0.832 | 0.886 | 0.77
LXF-289 | 0.74 | 0.713 | 0.69 | 0.67 | 0.729 | 1.06 | 1.04 | 1.02 | 1.03 | 1.09 | 0.513 | 0.545 | 0.525 | 0.445 | 0.862 | 0.957 | 0.935 | 0.971
NCI-H23 | 0.227 | 0.209 | 0.219 | 0.226 | 0.231 | 0.676 | 0.73 | 0.738 | 0.693 | 0.919 | 0.759 | 0.756 | 0.815 | 0.593 | 0.762 | 0.828 | 0.852 | 0.781
NCI-H322M | 0.956 | 0.954 | 0.871 | 0.945 | 0.844 | 0.846 | 1.03 | 0.779 | 0.632 | 0.926 | 0.746 | 0.734 | 0.799 | 0.728 | 1.2 | 1.15 | 1.3 | 0.907
NCI-H358 | 0.398 | 0.374 | 0.284 | 0.337 | 0.441 | 1.06 | 0.892 | 0.91 | 0.864 | 0.922 | 0.375 | 0.46 | 0.4 | 0.299 | – | – | – | –
NCI-H522 | – | 0.912 | 1.13 | 1.06 | 1.07 | – | – | – | – | – | 0.697 | 0.657 | 0.653 | 0.56 | – | – | – | –
NCI-H650 | 0.682 | 0.773 | 0.669 | 0.813 | 0.735 | 1.06 | 1.35 | 1.19 | 1.11 | 1.08 | 0.407 | 0.426 | 0.438 | 0.419 | – | – | – | –
NCI-H661 | 0.926 | 0.927 | 0.958 | 1.02 | 0.953 | 0.549 | 0.581 | 0.595 | 0.669 | 0.866 | 0.277 | 0.258 | 0.278 | 0.264 | – | – | – | –
NCI-H1299 | – | – | – | – | – | 1.07 | 0.976 | 1.12 | 1 | 1.06 | – | – | – | – | 1.05 | 1.03 | 1.1 | 1.01
NCI-H1563 | 0.476 | 0.507 | 0.497 | 0.519 | 0.526 | 0.902 | 0.868 | 0.978 | 0.935 | 0.929 | 0.587 | 0.649 | 0.655 | 0.525 | – | – | – | –
NCI-H1623 | 0.465 | 0.515 | 0.512 | 0.479 | 0.634 | – | – | – | – | – | 0.567 | 0.606 | 0.611 | 0.627 | – | – | – | –
NCI-H1650 | 0.195 | 0.189 | 0.235 | 0.195 | 0.187 | – | – | – | – | – | 0.454 | 0.521 | 0.389 | 0.37 | 1.1 | 1.22 | 1.49 | 0.999
NCI-H1703 | – | – | – | – | – | 0.338 | 0.293 | 0.216 | 0.279 | 0.278 | – | – | – | – | 0.856 | 0.943 | 0.278 | 0.205
NCI-H2342 | 0.671 | 0.736 | 0.612 | 0.759 | 0.588 | – | – | – | – | – | 0.5 | 0.488 | 0.538 | 0.595 | – | – | – | –
SW 900 | 0.153 | 0.177 | 0.177 | 0.177 | 0.164 | – | – | – | – | – | 0.491 | 0.496 | 0.682 | 0.416 | – | – | – | –
